Consider one substance from patent publication US7678386B2, “Liposomes coated with selected antibodies that bind to aminophospholipids” (Board of Regents the University of Texas, priority 2002, dated 2010).

pEC50: −log10 of the molar value. Read-outs that look alike come from different tables or passages of the source.

In general, pEC50 refers to the negative decadic logarithm of the EC50, by convention in mol/L. A word on the EC50: it is the concentration needed to bring the measured effect to its halfway point. Read a low EC50 as an effect from little substance.

A short description of experiment [1]: Anti-PS ELISA on PS-coated plates. The experiment is classed as binding. The method, then:
The anti-PS ELISA used in the present studies is conducted as follows. Unless particular differences are specified, this is the format of the ELISA used throughout the studies of the present application.
The ELISA is exemplified using the antigen PS (P-6641 25 mg 10 mg/ml (solvent is Chloroform:MeOH 95:5) in 2.5 ml bottle). Other phospholipids can be used using the same protocol. The PS (or other phospholipids) stock solution should be aliquoted and stored in an airtight container at −30° C. The preferred 96 well plates are Dynatech U bottom Immulon 1 (from Dynatech Labs. Cat# 011-010-3550).
The standard blocking buffer used herein is 10% bovine serum dissolved in PBS. Other blocking solutions are suitable, but any detergents should be excluded from block and wash solutions. The primary antibody is the test sample or admixture. The preferred secondary antibody is goat, anti-mouse IgG-HRP. The developing solutions are: 10 ml of 0.2 M Na2PO4, 10 ml of 0.1 M citric acid, one 10 mg tablet of OPD, and 10 μl of hydrogen peroxide. The stop solution is 0.18 M H2SO4.
(§1) The protocol entails coating 96-well plate with PS as follows: dilute the PS stock solution in n-hexane to 10 μg/ml and mix well. Add 50 μl to each well and allow this to evaporate for one hour. Add 200 μl of 10% serum (or other blocking buffer) to each well, cover and maintain at room temperature for 2 hours or overnight at 4° C. Wash the plate three times with PBS. Add the primary antibody (dilute in blocking buffer) and incubate for 2 hours at 37° C. Wash three times with PBS. Add 100 μl/well of secondary antibody (typically goat. anti-mouse IgG-HRP or other appropriate secondary antibody) and incubate for 1 hour at 37° C. Wash the plate three times with PBS. Develop the ELISA by adding 100 μl of developing solution to each of the wells, develop for 10 minutes, then add 100 μl of stop solution to each plate and read the O.D. at 490 nm.

Experiment [2] can be described thus: Competition of 9D2 and annexin V for binding to immobilized PS. To be noted: competitor in 10-fold molar excess. The method, then:
Biotinylated 9D2 antibody and annexin V were prepared by incubating purified proteins with a 10-fold molar excess of N-hydroxysuccinimide biotin (Sigma, Mo.) for 1 h at room temperature. Free biotin was removed by dialysis against PBS. […] For competition studies, […] biotinylated proteins were premixed with a 10-fold molar excess of unmodified proteins. The mixtures were then added to PS-coated plates. Bound reagents were detected by streptavidin-HRP conjugate diluted 1:1000. The binding to PS of each reagent in the absence of a competitor was taken as the 100% value.

Experiment [3] has as its system vascular endothelium of MDA-MB-231 tumors. The experiment is described as follows: Double staining study, orthotopic MDA-MB-231 tumors. The experiment is classed as in vivo, mouse. Particulars: biotinylated reagent i.v., one hour. The method, then: In further studies, mice bearing MDA-MB-231 tumors (0.3-0.7 cm^3 in volume) were injected intravenously with 50 μg of biotinylated 9D2, control IgM or annexin V (six mice per group). Biotinylated reagents were first incubated with streptavidin-Cy3 conjugate, washed in PBS. then incubated with MECA 32 antibody followed by FITC-tagged anti-rat IgG secondary antibody. Single images, taken with appropriate filters for Cy3 (red) and FITC (green) fluorescence respectively, were captured by digital camera and transferred to a computer. […] The same method was used to analyze tumors from mice injected with control rat IgM or saline. The percentage of vessels with localized 9D2 or annexin V was calculated as follows: mean number of yellow vessels per field divided by mean number of green (total) vessels multiplied by 100.
Double staining studies were also performed in which mice bearing orthotopic MDA-MB-231 breast tumors were injected intravenously with biotinylated 9D2 antibody, biotinylated control IgM or biotinylated annexin V. One hour later, the mice were exsanguinated, and their tumors were removed and frozen sections were cut. The tumor sections were then stained with Cy3-conjugated streptavidin to detect the biotinylated proteins and with FITC-conjugated MECA32 to detect vascular endothelium. […]

The nature of experiment [4]: ELISA on plates coated with phospholipids (specificity). The experiment is classed as binding. To be noted: identical antibody concentration. The method, then:
as §1
The specificity of the antibodies was determined by ELISA using plates coated with the following phospholipids: PS, phosphatidylserine; PE, phosphatidylethanolamine; PI, phosphatidylinositol: PA. phosphatidic acid; PG, phosphatidylglycerol; PC, phosphatidylcholine: CL, cardiolipin; and SM, sphingomyelin.
The 1B9, 2G7 and 7C5 antibodies behave essentially the same. These antibodies recognize only PS and require serum or serum proteins for binding to PS. […]
For orientation: In an ELISA, binding on a coated surface is turned into a signal by an enzyme label.

Experiment [5] relates to blood vessels of L540 tumors. The experiment is described as follows: Annexin V inhibition of coaguligand-induced thrombosis in vivo. On the set-up: species or system mouse. The method, then: The ability of Annexin V to inhibit coaguligand-induced thrombosis in vivo was examined in L540 Hodgkin-bearing SCID mice. Tumors were grown in mice and two mice per group (tumor size 0.5 cm in diameter) were injected intravenously via the tail vein with one of the following reagents: a) saline; b) 100 μg of Annexin V; c) 40 μg of anti-VCAM-1•tTF; d) 100 μg of Annexin V followed 2 hours later by 40 μg of anti-VCAM-1•tTF.
Four hours after the last injection mice were anesthetized and perfused with heparinized saline. Tumors were removed, fixed with 4% formalin, paraffin-embedded and stained with hematoxylene-eosin. The number of thrombosed and non-thrombosed blood vessels was counted and the percentage of thrombosis was calculated.

In the case of “Annexin V: high affinity PS binding ligand; natural ligand of anionic phospholipids and PE”, the pEC50 in experiment [1] (MW used for conversion: IgM 900 kDa, IgG 150 kDa, Annexin V 36 kDa, read-out: EC50) is 8.56. For the same substance, the “EC50” value in experiment [1] (dilutions of tissue culture supernatants) turned out to be 0.100 µg/mL. In experiment [1] (from EC50 in nM), the “Affinity vs. 3SB (-fold increased)” value is 0.18 -fold. The “Binding vs. 3SB (-fold increased)” value in experiment [1] (from EC50 in μg/ml) is given as 4.68 -fold. Moreover, in experiment [2], the “Binding (% Control) of biotinylated 9D2 to PS” value was found to be 93% and the “Binding (% Control) of biotinylated annexin V to PS” value is reported as 8%. For the same substance, the “MECA 32 positive vessels that bound the reagent” value in experiment [3] is “About 40%”. Also, the “Relative Strength of Reactivity on ELISA” value in experiment [4] is “PS = PE = PI = PA > CL > PG”. In addition, the “coaguligand-induced intravascular thrombosis and changes in tumor cell morphology” value in experiment [5] (100 μg Annexin V 2 hours before 40 μg coaguligand) is on record as “completely abolished”. Further, in experiment [5] (100 μg Annexin V alone), the tumor morphology entry is recorded as “did not alter tumor morphology”.
